Reference: patent publication US8067619B2, “Coumarin derivatives as ion channel openers” (Janssen Pharmaceutica N.V., priority 2005, dated 2011)
pEC50: −log10 of the molar value.

Molecular target: T1, KATP channels (Homo sapiens, UniProt O60706+Q14654)
T1 construct: TE671 human medulloblastoma cells were obtained from ATCC; host or cells: TE671 human medulloblastoma cells
Experiment: Potassium Channel Assay (FLIPR membrane potential, TE671 cells)
Type: cell-based
Conditions: TE671 human medulloblastoma cells, Membrane Potential Assay Dye, room temperature, hyperpolarization from KATP channel opening seen as decrease in fluorescent intensity
Procedure: TE671 human medulloblastoma cells were obtained from ATCC and grown in Dulbecco's modified Eagle's medium (DMEM) supplemented with 10% fetal bovine serum, 100 U/ml penicillin and 100 U/ml streptomycine.
The day before testing, the cells were plated in black 96-well plates at 50K/well. On the day of testing, the growth media was removed, then 100 μl of FLIPR buffer (20 mM HEPES, 120 mM NaCl, 2 mM KCl, 2 mM CaCl2, 1 mM MgCl2, 5 mM Glucose) and 100 μl of Membrane Potential Assay Dye (Molecular Devices) dissolved in FLIPR buffer were added to each well. The cells were incubated at room temperature for 15 to 30 min.
The effect of test compounds on KATP channels were evaluated on a fluorometric imaging plate reader (FLIPR, Molecular Devices) at room temperature. After a baseline period, 50 μl of 5× stock solution of test compound prepared in FLIPR buffer was added and fluorescent change was monitored for 3 minutes. After this reading, glyburide, a KATP channel blocker, was added to a final concentration of 5 μM to check the specificity of the test compound as a KATP channel openers. Hyperpolarization resulting from KATP channel opening was observed as a decrease in fluorescent intensity.

T1 sequence (O60706 1-1549 isoform O60706-2): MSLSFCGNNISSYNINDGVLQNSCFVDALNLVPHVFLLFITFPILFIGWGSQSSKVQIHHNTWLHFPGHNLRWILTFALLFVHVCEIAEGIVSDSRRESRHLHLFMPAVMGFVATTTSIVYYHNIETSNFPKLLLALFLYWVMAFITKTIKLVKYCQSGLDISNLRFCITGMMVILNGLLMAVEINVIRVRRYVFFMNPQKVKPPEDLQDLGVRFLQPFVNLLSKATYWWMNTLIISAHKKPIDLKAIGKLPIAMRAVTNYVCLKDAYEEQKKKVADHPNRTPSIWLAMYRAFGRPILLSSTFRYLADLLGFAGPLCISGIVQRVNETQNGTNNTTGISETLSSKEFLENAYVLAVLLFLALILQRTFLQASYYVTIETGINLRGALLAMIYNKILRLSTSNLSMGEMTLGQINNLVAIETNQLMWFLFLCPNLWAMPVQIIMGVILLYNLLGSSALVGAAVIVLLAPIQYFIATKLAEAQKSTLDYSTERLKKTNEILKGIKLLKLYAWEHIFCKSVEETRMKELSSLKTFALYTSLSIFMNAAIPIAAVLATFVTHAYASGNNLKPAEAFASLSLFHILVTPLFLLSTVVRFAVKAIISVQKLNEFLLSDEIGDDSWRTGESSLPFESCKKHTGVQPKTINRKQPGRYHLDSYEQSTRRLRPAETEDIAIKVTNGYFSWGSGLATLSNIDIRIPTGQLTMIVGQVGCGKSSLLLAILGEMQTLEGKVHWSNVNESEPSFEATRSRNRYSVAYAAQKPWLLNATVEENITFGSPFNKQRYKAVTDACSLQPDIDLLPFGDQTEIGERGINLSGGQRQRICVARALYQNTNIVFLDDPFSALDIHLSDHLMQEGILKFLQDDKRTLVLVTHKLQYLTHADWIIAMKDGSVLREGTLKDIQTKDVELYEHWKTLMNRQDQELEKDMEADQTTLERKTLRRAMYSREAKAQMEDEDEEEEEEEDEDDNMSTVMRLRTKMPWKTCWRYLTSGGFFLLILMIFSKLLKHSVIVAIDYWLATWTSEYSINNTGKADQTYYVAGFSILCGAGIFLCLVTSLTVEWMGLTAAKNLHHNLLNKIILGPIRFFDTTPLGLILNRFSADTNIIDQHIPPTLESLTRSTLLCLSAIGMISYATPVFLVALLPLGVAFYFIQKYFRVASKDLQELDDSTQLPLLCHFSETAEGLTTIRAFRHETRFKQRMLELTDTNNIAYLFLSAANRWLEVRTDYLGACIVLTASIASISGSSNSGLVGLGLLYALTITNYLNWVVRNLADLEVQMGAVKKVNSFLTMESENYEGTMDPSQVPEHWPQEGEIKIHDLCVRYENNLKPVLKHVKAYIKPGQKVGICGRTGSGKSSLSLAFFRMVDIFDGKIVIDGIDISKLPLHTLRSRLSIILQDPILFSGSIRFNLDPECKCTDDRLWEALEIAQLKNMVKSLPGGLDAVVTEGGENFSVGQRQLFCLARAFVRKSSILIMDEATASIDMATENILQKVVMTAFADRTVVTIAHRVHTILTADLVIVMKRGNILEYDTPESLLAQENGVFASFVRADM
T1 sequence (Q14654 whole entry): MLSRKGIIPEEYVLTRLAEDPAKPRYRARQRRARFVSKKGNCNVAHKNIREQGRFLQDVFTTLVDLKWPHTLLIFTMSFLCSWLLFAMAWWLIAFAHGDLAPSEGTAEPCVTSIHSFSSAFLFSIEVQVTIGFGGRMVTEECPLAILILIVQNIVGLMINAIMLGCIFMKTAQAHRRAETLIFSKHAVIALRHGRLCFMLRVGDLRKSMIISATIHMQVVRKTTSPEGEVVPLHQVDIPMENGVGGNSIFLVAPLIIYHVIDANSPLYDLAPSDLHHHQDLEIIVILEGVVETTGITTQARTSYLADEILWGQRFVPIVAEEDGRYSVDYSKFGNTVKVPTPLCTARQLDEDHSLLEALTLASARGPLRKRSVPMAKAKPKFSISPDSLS

pEC50 | SMILES
< 4.52 | N#Cc1ccc2c(CC(O)c3ccc(Cl)cc3Cl)cc(=O)oc2c1 (stereo not shown) [Compound 14, 4-[2-(2,4-Dichloro-phenyl)-2-hydroxy-ethyl]-2-oxo-2H-chromene-7-carbonitrile]
4.86 | N#Cc1ccc2c(CC(=O)Nc3ccc(F)cc3F)cc(=O)oc2c1 [Compound 15, 2-(7-Cyano-2-oxo-2H-chromen-4-yl)-N-(2,4-difluoro-phenyl)-acetamide]
5.42 | N#Cc1ccc2c(CC(=O)Nc3ccccc3F)cc(=O)oc2c1 [Compound 16, 2-(7-Cyano-2-oxo-2H-chromen-4-yl)-N-(2-fluoro-phenyl)-acetamide]
4.71 | N#Cc1ccc2c(CC(=O)Nc3ccccc3Cl)cc(=O)oc2c1 [Compound 17, N-(2-Chloro-phenyl)-2-(7-cyano-2-oxo-2H-chromen-4-yl)-acetamide]
5.11 | N#Cc1ccc2c(CC(=O)Nc3cccc(Cl)c3)cc(=O)oc2c1 [Compound 18, N-(3-Chloro-phenyl)-2-(7-cyano-2-oxo-2H-chromen-4-yl)-acetamide]
4.97 | N#Cc1ccc2c(CC(=O)Nc3cccc(Cl)c3Cl)cc(=O)oc2c1 [Compound 19, 2-(7-Cyano-2-oxo-2H-chromen-4-yl)-N-(2,3-dichloro-phenyl)-acetamide]
< 4.52 | N#Cc1ccc2oc(=O)cc(CC(O)c3ccc(Cl)cc3Cl)c2c1 (stereo not shown) [Compound 20, 4-[2-(2,4-Dichloro-phenyl)-2-hydroxy-ethyl]-2-oxo-2H-chromene-6-carbonitrile]
< 4.52 | N#Cc1ccc2oc(=O)cc(CC(=O)c3cccc(Cl)c3)c2c1 [Compound 21, 4-[2-(3-Chloro-phenyl)-2-oxo-ethyl]-2-oxo-2H-chromene-6-carbonitrile]
4.70 | O=C(Cc1cc(=O)oc2ccc(OS(=O)(=O)C(F)(F)F)cc12)c1cccc(Cl)c1 [Compound 22, Trifluoro-methanesulfonic acid 4-[2-(3-chloro-phenyl)-2-oxo-ethyl]-2-oxo-2H-chromen-6-yl ester]

The remaining lines, values behind:

SMILES | pEC50
COCCc1c(-c2ccc(OC)cc2OC)c(=O)oc2cc(OS(=O)(=O)C(F)(F)F)ccc12 [Compound 2, Trifluoro-methanesulfonic acid 3-(2,4-dimethoxy-phenyl)-4-(2-methoxy-ethyl)-2-oxo-2H-chromen-7-yl ester] | 5.02
Cc1c(C(=O)c2ccc(Cl)cc2)c(=O)oc2cc(C#N)ccc12 [Compound 3, 3-(4-Chloro-benzoyl)-4-methyl-2-oxo-2H-chromene-7-carbonitrile] | < 4.52
N#Cc1ccc2c(CC(=O)c3ccc(Cl)cc3)cc(=O)oc2c1 [Compound 4, 4-[2-(4-Chloro-phenyl)-2-oxo-ethyl]-2-oxo-2H-chromene-7-carbonitrile] | 4.80
COCCc1c(-c2ccc(OC)cc2OC)c(=O)oc2cc(C#N)ccc12 [Compound 6, 3-(2,4-Dimethoxy-phenyl)-4-(2-methoxy-ethyl)-2-oxo-2H-chromene-7-carbonitrile] | < 4.52
O=c1oc2cc(OS(=O)(=O)C(F)(F)F)ccc2c(CCO)c1-c1ccc(O)cc1O [Compound 7, Trifluoro-methanesulfonic acid 3-(2,4-dihydroxy-phenyl)-4-(2-hydroxy-ethyl)-2-oxo-2H-chromen-7-yl ester] | 4.71
N#Cc1ccc2c(CCO)c(-c3ccc(O)cc3O)c(=O)oc2c1 [Compound 8, 3-(2,4-Dihydroxy-phenyl)-4-(2-hydroxy-ethyl)-2-oxo-2H-chromene-7-carbonitrile] | 4.63
C=Cc1c(-c2ccc(O)cc2O)c(=O)oc2cc(C#N)ccc12 [Compound 9, 3-(2,4-Dihydroxy-phenyl)-2-oxo-4-vinyl-2H-chromene-7-carbonitrile] | 5.48
C=Cc1c(-c2ccc(C#N)cc2O)c(=O)oc2cc(F)ccc12 [Compound 11, 44-(7-Fluoro-2-oxo-4-vinyl-2H-chromen-3-yl)-3-hydroxy-benzonitrile] | < 4.52
O=c1cc(CC(O)c2ccc(Cl)cc2Cl)c2ccc(OS(=O)(=O)C(F)(F)F)cc2o1 (stereo not shown) [Compound 12, Trifluoro-methanesulfonic acid 4-[2-(2,4-dichloro-phenyl)-2-hydroxy-ethyl]-2-oxo-2H-chromen-7-yl ester] | 5.18
O=C(Cc1cc(=O)oc2cc(OS(=O)(=O)C(F)(F)F)ccc12)Nc1c(Cl)cc(Cl)cc1Cl [Compound 13, Trifluoro-methanesulfonic acid 2-oxo-4-[(2,4,6-trichloro-phenylcarbamoyl)-methyl]-2H-chromen-7-yl ester] | 5.06
